Calls of active or inactive are those of the source. The rule behind the calls is not given here.
Key:
[1] = Half life in Sprague-Dawley rat 10 mg/kg, po by LC/MS/MS analysis; format: ADME, organism-based; conditions: in vivo
[2] = Tmax in Sprague-Dawley rat 1 mg/kg, iv by LC/MS/MS analysis; format: ADME, organism-based; conditions: in vivo
[3] = Cmax in Sprague-Dawley rat 10 mg/kg, po by LC/MS/MS analysis; format: ADME, organism-based; design: dose 10 mg/kg, route po; conditions: in vivo
MCF7 [4] = test: Antitumor activity against human MCF7 cells xenografted in BALB/c mouse assessed as inhibition of tumor growth at 150 mg/kg, po administered once daily and measured every 2 days for 23 days; format: functional, organism-based; conditions: time 23.0 day
MCF7 [5] = test: Induction of cell cycle arrest in human MCF7 cells assessed as accumulation of cells at G1 phase at 1.5 uM incubated for 24 hrs by propidium iodide staining based flow cytometry analysis (reference value: 57.38%); format: functional
CDK2/Cyclin A2 = CDK2/Cyclin A2 (Homo sapiens, UniProt P24941); test: Inhibition of CDK2/Cyclin A (unknown origin) in presence of ATP by time resolved-FRET assay; format: protein-complex assay
[6] = […] stability in human liver microsomes assessed as intrinsic clearance preincubated for 10 mins followed by NADPH addition by LC-MS/MS analysis; format: ADME, Microsome; conditions: read-out: CLH

`CCN1CCc2cc(-c3nc(Nc4ccc(N5CCNCC5)cn4)ncc3F)ccc2C1=O` gave a half-life [1] of 3.59 h, a Tmax [2] of 1.98 min and a Cmax [3] of 144 ng/mL. The inhibition (MCF7 [4]) was “Active”, the Activity (MCF7 [5]) was 79.52% and the IC50 (CDK2/Cyclin A2) was 1050 nM. It also gave a CLint scaled [6] of 11.5 mL/min/kg.

Reference: ChEMBL document CHEMBL5096234, “Discovery, Optimization, and Evaluation of Selective CDK4/6 Inhibitors for the Treatment of Breast Cancer” (J Med Chem, 2022)
